Measured values from patent US10792303B2, “Compositions and methods for inducing beige or brown fat tissue” (Logick Energetics, priority 2015, dated 2020).

System: KS-483 cells
Experiment: qPCR gene expression in KS-483 cells after compound stimulation
Type: cell-based
Details: 3 days stimulation, Indo 5 uM; for BMP-4 gene expression (control = 1) / BMP-7 gene expression (control = 1) / CD36 gene expression (control = 1) / CEBP gene expression (control = 1) / CIDEA gene expression (control = 1) / DKK2 gene expression (control = 1) / FABP-4 gene expression (control = 1) / FGF21 gene expression (control = 1) / LPL gene expression (control = 1) / LRP5 gene expression (control = 1) / O3FAR1 gene expression (control = 1) / PLIN1 gene expression (control = 1) / PPAR-γ gene expression (control = 1) / PRDM16 gene expression (control = 1) / PpargC1α/PGC-1α gene expression (control = 1) / SCD1 gene expression (control = 1) / SLC2A4 gene expression (control = 1) / WNT5a gene expression (control = 1) / WNT6 gene expression (control = 1) / WNT10a gene expression (control = 1) / WNT11 gene expression (control = 1) / Adipoq gene expression (control = 1) / CFD gene expression (control = 1) / Noggin gene expression (control = 1) / UCP-1 gene expression (control = 1): Pentosan 5 ug/ml; for BMP-2 gene expression (control = 1): Pentosan 0.05 ug/ml
Protocol: The genes in KS-483 cells were assessed for up- or downregulation after stimulation with compound. Briefly, KS-483 cells were cultured under standard culturing conditions in α-MEM medium supplemented with glutamax, penicillin/streptomycin and 10% heat-inactivated Foetal Calf Serum (FCS).
For gene-expression analysis cells were seeded at 9210 cells/cm2 in 6-wells culture plates (Costar). At day 4, when cells were confluent, cells were stimulated with compounds in the presence of 5 μg/ml vitamin C. After 72 hours stimulation, cells were washed with PBS and subsequently RNA from the cells was isolated in 1 ml TRIzol (Invitrogen) following a standard TRIzol isolation protocol. RNA concentration and purity was assessed on a Nanodrop 1000 (Thermo Scientific). Single strand cDNA was synthesized from the isolated mRNA using reverse transcriptase (RT). Subsequently, SYBR green real-time PCR, also known as qPCR, was used to quantify differential gene expression of selected genes normalized to the expression of the housekeeping gene beta-2 microglobulin (b2m). […] The qPCR protocol applied was as follows:
15 minutes at 95° C. to activate Taq DNA polymerase, inactivate reverse transcriptase and denaturate the cDNA template.
40 cycles of 15 seconds denaturation at 95° C., 30 seconds annealing at 55° C. and 30 seconds of extension at 72° C.
At the melting point, the two strands of DNA will separate and the fluorescence rapidly decreases. Presence of multiple melting point, pointing at contaminated end-products was verified.
The threshold cycle or CT value (the cycle at which a statistically significant increase in normalized fluorescence intensity is first detected) were determined and relative fold change of genes of interest compared to b2m was determined.
The control has an expression of 1; values higher than 1 imply up-regulation of the gene; values lower than 1 imply down-regulation of genes.

Row | Molecule | BMP-4 gene expression (control = 1) (1 ng c-DNA) | BMP-7 gene expression (control = 1) (1 ng c-DNA) | CD36 gene expression (control = 1) (1 ng c-DNA) | CEBP gene expression (control = 1) (1 ng c-DNA) | CIDEA gene expression (control = 1) (1 ng c-DNA) | DKK2 gene expression (control = 1) (1 ng c-DNA) | FABP-4 gene expression (control = 1) (1 ng c-DNA) | FGF21 gene expression (control = 1) (1 ng c-DNA) | LPL gene expression (control = 1) (1 ng c-DNA) | LRP5 gene expression (control = 1) (1 ng c-DNA) | O3FAR1 gene expression (control = 1) (1 ng c-DNA) | PLIN1 gene expression (control = 1) (1 ng c-DNA) | PPAR-γ gene expression (control = 1) (1 ng c-DNA) | PRDM16 gene expression (control = 1) (1 ng c-DNA) | PpargC1α/PGC-1α gene expression (control = 1) (1 ng c-DNA) | SCD1 gene expression (control = 1) (1 ng c-DNA) | SLC2A4 gene expression (control = 1) (1 ng c-DNA) | WNT5a gene expression (control = 1) (1 ng c-DNA) | WNT6 gene expression (control = 1) (1 ng c-DNA) | WNT10a gene expression (control = 1) (1 ng c-DNA) | also measured
1 | COc1ccc2c(c1)c(CC(=O)O)c(C)n2C(=O)c1ccc(Cl)cc1 [Indo, Indomethacin] | 0.81 | 1.62 | 181.5 | 1.19 | 0.95 | 1.06 | 162.94 | 2.33 | 4.43 | 1.58 | 2.26 | 354.02 | 0.91 | 1.58 | 1.15 | 1.32 | 2.09 | 0.73 | 0.83 | 0.92 | WNT11 gene expression (control = 1) (1 ng c-DNA): 1.01; BMP-2 gene expression (control = 1) (10 ng c-DNA): 1.96; Adipoq gene expression (control = 1) (10 ng c-DNA): 251.30; CFD gene expression (control = 1) (10 ng c-DNA): 413.23; CIDEA gene expression (control = 1) (10 ng c-DNA): 1.86; Noggin gene expression (control = 1) (10 ng c-DNA): 2.25; O3FAR1 gene expression (control = 1) (10 ng c-DNA): 5.68; UCP-1 gene expression (control = 1) (10 ng c-DNA): 2.18
2 | Pentosan polysulfate | 0.77 | 0.77 | 2.60 | 0.63 | 5.50 | 0.14 | 3.83 | 0.23 | 2.33 | 3.27 | 0.44 | 17.47 | 1.55 | 1.85 | 2.09 | 0.85 | 1.07 | 0.76 | 0.16 | 0.03 | WNT11 gene expression (control = 1) (1 ng c-DNA): 0.12; BMP-2 gene expression (control = 1) (10 ng c-DNA): 1.32; Adipoq gene expression (control = 1) (10 ng c-DNA): 32.00; CFD gene expression (control = 1) (10 ng c-DNA): 40.86; CIDEA gene expression (control = 1) (10 ng c-DNA): 9.19; Noggin gene expression (control = 1) (10 ng c-DNA): 3.56; O3FAR1 gene expression (control = 1) (10 ng c-DNA): 1.14; UCP-1 gene expression (control = 1) (10 ng c-DNA): 2.85
